# Test results published in US20180207249A1, “METHOD AND VACCINE COMPRISING COPOLYMER 1 FOR TREATMENT OF PSYCHIATRIC DISORDERS” (YEDA RESEARCH AND DEVELOPMENT CO. LTD., priority 2003, published 2018).
# Assays:
# [1] = test system: male C57B1/6J mice exposed to the odor of a predator; experiment: Behavioral adaptation to psychological stress (predator odor; EPM and ASR cut-off behavioral criteria); type: in vivo, mouse; conditions: single 10-min exposure to odor of a predator, PBS/CFA control 40.8%, P<0.05
# Procedure: (iii) Immunization. Each animal was injected with a total of 100 μg of Cop-1 emulsified in an equal volume of complete Freund's adjuvant (CPA) containing 5 mg/ml of Mycobacteria H37 RA (Difco). The emulsion, in a total volume of 0.1 mL, was injected into the flank 1 week before the mouse was first injected with a psychotomimetic drug. Control mice were injected with an equal volume of phosphate-buffered saline (PBS) emulsified in CFA.
# (ix) Induction of psychological stress. Mice in the experimental groups were exposed for 10 minutes to thoroughly soiled eat litter (used by a cat for 2 days and sifted for faeces). Control (WT) mice were exposed for the same time to unused litter. […]
# Behavior on the EPM was recorded using EthoVision programs (Noldus) that recorded the location of the mouse over the 5-minute test period. […]
# Five behavioral parameters were assessed: (1) time spent in the open arms; (2) time spent in the closed arms; (3) number of entries into open arms; (4) number of entries into closed arms; (5) total number of entries into all arms. Mice were recorded as having entered an open or closed arm only when all four paws had passed over the dividing line between open and closed arms. […]
# (xi) Acoustic startle response (ASR). […] The ASR and pre-pulse inhibition were measured using two ventilated startle chambers (SR-LAB system, San Diego Instruments, San Diego, Calif.). […]
# Cop-1-reactive T cells = experiment: ELISA of BDNF secreted by Cop-1-reactive T cells; type: cell-based, Lewis rats; conditions: 48 h stimulation with antigen
# Procedure: (iv) T-cell lines. Ten days after Cop-1 immunization, T-cell lines were generated from draining lymph node cells obtained from Lewis rats immunized with Cop-1 emulsified in CFA. The lymph nodes were surgically removed, dissociated, washed, and then activated with the antigen (10 μg/ml) in stimulation medium as previously reported (Kipnis et al., 2000). The T-cells lines were expanded by repeated stimulation and propagation.
# (v) Enzyme-linked immunosorbent assay. T cell-reactive Cop-1 cells were grown for 1 week in a propagation medium, then washed with PBS and re-suspended in stimulation medium. The cultured T cells (0.5×10^6 cells/mL) were then incubated, in the presence of irradiated thymocytes (10^7 cells/mL), with concanavalin A (Con A; 1.25 μg/mL), myelin basic protein (MRP; 10 μg/ml), Cop-1 (10 μg/mL), ovalbumin (OVA; 10 μg/mL), or no antigen, in stimulation medium. After 48 h the cells were centrifaged and their supernatants were collected and sampled. Concentrations of brain-derived neurotrophic factor (BDNF) in the samples were determined with a sensitive sandwich ELISA. In brief 96-well flat-bottomed plates were coated with a chicken anti-human BDNF antibody (Promega, Madison, Wis.) in 0.025 M NaHCO3 and 0.025 M Na2CO3 (pH 8.2). Recombinant human BDNF (used as a standard; Research Diagnostics, Flanders, N.J.) was used in serial dilutions in blocking solution containing 3% bovine serum albumin, 0.05% polyoxyethylene-sorbitan monolaurate (Tween-20), and 1% fetal calf serum in PBS (pH 8.2). Bound BDNF was detected by incubating the plates with a mouse anti-human BDNF antibody (Research Diagnostics) and then with peroxidase-conjugated goat anti-mouse IgG (Jackson ImmunoResearch, West Grove, Pa.) in blocking solution. The plates were developed using a 3,3′,5,5′-tetramethylbenzidine liquid substrate system (Sigma-Aldrich). The reaction was stopped by adding 1M H3PO4, and the optical density was determined at 450 nm. Results for each experiment were calculated as the amount of secreted BDNF per 1 mL of sample, after subtraction of background levels of the irradiated thymocytes incubated with the stimulation medium.
# Cop-1-reactive T cells were cultured for 48 h with Cop-1, MBP, ovalbumin, or concanavalin A in stimulation medium. T cell supernatants were collected and subjected to sandwich ELISA. […] Values are mean values (pg/ml) +/− SE (from three independent experiments) of the amounts of BDNF secreted by Cop-1-specific T cells in response to stimulation by various antigens.
substance,measurement,setting,value
Copolymer 1 [Cop-1],Prevalence of maladaptation (behavioral changes) after predator odor,[1],14.8%
same,Secretion of BDNF by Cop-1-reactive T cells compared with unstimulated T cells,Cop-1-reactive T cells,significantly increased
same,BDNF secreted by Cop-1-reactive T cells (mean),"Cop-1-reactive T cells; mean of three independent experiments, no antigen 400",1220 pg/mL
